Data set [1] deals with Fgfr3^N534K/+ mouse model of HCH. Kind of data set: Fgfr3N534K/+ mice: long bone length. It is filed as in vivo. The procedure: To explore the effectiveness of TYRA-300 in an additional model of FGFR3-related chondrodysplasia, TYRA-300 was evaluated in a Tg-CMV^Cre/+/Fgfr3^N534K/+ mouse model of HCH ([42]). This model is driven by the Fgfr3 N534K mutation, which corresponds to the human FGFR3 N540K mutation ([9], [43]). This model closely recapitulates the skeletal phenotype of HCH in humans, with a milder disproportionate short stature phenotype ([42]). […] Because the goal of treatment with TYRA-300 is to […] Fgfr3 signaling levels, Fgfr3^N534K/+ mice were administered a lower dose of 1.8 mg/kg TYRA-300 daily for the full study. Mice were treated for 21 days, from 3 to 24 days of age. Treatment was started at an older age in the HCH model than in the ACH model, as children with HCH are often diagnosed later than children with ACH.
Tg-CMV^Cre/+/Fgfr3^N534K/+ mice were tattooed and assigned to treatment groups within each litter at 3 days of age (wild-type mice, Fgfr3^N534K/+ mice treated with vehicle, or Fgfr3^N534K/+ mice treated with 1.8 mg/kg TYRA-300). TYRA-300 was dissolved in aqueous HCl (3.5 mM) containing 5% DMSO and administered subcutaneously to Fgfr3^N534K/+ mice (n = 9) for 21 days. The vehicle was administered to wild-type (n = 12) or Fgfr3^N534K/+ mice (n = 11) for 21 days. Subcutaneous administration was used for this study rather than oral gavage due to the size of the mice. Clinical observations, nasoanal length, and tail length measurements were performed every 3 days, and body weights were collected daily.
(§1) Whole body x-ray images were taken of all animals by Faxitron specimen radiography MX-20 (Faxitron X-Ray LLC) following terminal sacrifice. The length of the L4–L6 lumbar vertebra segment was also measured for each animal using calipers, and the height of the L5 vertebral body was measured from Alcian blue/Sirius red images. Long bones and the skull were then excised, and their dimensions were measured using calipers (VWRi819-0013, VWR International). The transverse and sagittal diameters of the foramen magnum were also measured using calipers for the Fgfr3^Y367/+ model, and measured using the μCT images for the Fgfr3^N534K/+ model.

For another data set, the system named is pERK1/2. Kind of data set: Fgfr3N534K/+ mice: histology and pERK1/2 immunohistochemistry of distal femur. Conditions: 1.8 mg/kg daily for 21 days. It is filed as in vivo, mouse. The procedure:
To confirm the mechanistic effect of TYRA-300 within the growth plate of treated Fgfr3^N534K/+ mice, immunohistochemical analyses were performed on the distal femurs. In contrast to the ACH model, a larger SOC is visible in the femoral epiphysis of HCH mice ([42]), and the effect of TYRA-300 on SOC formation is not obvious. […] It is well established that the MAPK pathway is the canonical FGFR3 downstream signaling pathway. Here, we confirmed that this pathway is still activated at 24 days of age in the HCH growth plate through immunohistochemical staining of phosphorylated ERK1/2 (pERK), which was positive in hypertrophic chondrocytes (Figure 4G).
The right femur and lumbar vertebrae segment L4–L6 were collected and fixed in 4% paraformaldehyde, decalcified with ethylenediaminetetraacetic acid (EDTA) 0.5 M (pH 8) for 2 or 3 weeks, and embedded in paraffin. Serial paraffin sections of 5 μm were stained with hematoxylin, eosin, and Safranin O. For immunohistochemistry, sections were labeled with antibodies against collagen type X (BIOCYC ref. [1]-CO097-05-RUO, 1:100 dilution), collagen type I (Novotec, 20151, dilution 1:1,000), pERK (Cell Signaling, 4370S, dilution 1:1,000), and PCNA (Abcam, GR3195972-6, 1:500 dilution) using the Dako Envision Kit. […] Cells were counted using ImageJ software (NIH, Laboratory for Optical Computational Instrumentation).

Data set [2] concerns foramen magnum of Fgfr3^N534K/+ mice. Kind of data set: Fgfr3N534K/+ mice: microCT of foramen magnum, grade of synchondroses. In kind it is in vivo, mouse. The arrangement: key to grade of synchondroses after treatment: I: border of synchondroses were completely separated; II: clear separation of synchondroses with some areas suspicious for bone bridging; III: synchondroses showing bony bridge between 2 borders; IV: completely fused synchondroses with remnants of margin (cartilage); V: completely fused synchondroses; source data of Figure 5C (sheet "5C"): grade of synchondroses: scale not given here. The procedure: Finally, to confirm the effects of TYRA-300 on the axial skeleton in Fgfr3^N534K/+ mice, μCT imaging of the foramen magnum was performed at the end of treatment.
as §1
The heads of all mice were isolated, and skin was stripped before being placed in 70% ethanol at 4°C. μCT images of the skulls were measured on the Skyscan-1272 (Bruker) with the following parameters: 10 μm resolution, 680 ms exposure, 70 kV, 142 μA, and 0.350° rotation step. The μCT data were analyzed using DataViewer and CTAn software (version 1.20.8) to perform postprocessing techniques in 3D. The nasio-occipital length and anteroposterior length of the skull were measured using 2D μCT images.

In data set [3] the test system is lumbar vertebrae of Fgfr3^Y367C/+ mice. The data set can be described thus: Fgfr3Y367C/+ mice: lumbar vertebrae and intervertebral discs (calipers, histology). Conditions: 1.2 mg/kg s.c. daily for 15 days. It is filed as in vivo, mouse. The procedure: Individuals with ACH frequently experience back pain and may undergo multiple spinal surgeries throughout their lives ([40]). Kyphosis and scoliosis are common with ACH and are also observed in the Fgfr3^Y367C/+ mouse model ([40]), and Fgfr3 is expressed in the intervertebral discs of Fgfr3^Y367C/+ mice ([28]). To determine how TYRA-300 affects the vertebrae and intervertebral discs, the spine was analyzed in the Fgfr3^Y367C/+ mice treated with TYRA-300 or vehicle.
as §1
The right femur and lumbar vertebrae segment L4–L6 were collected and fixed in 4% paraformaldehyde, decalcified with ethylenediaminetetraacetic acid (EDTA) 0.5 M (pH 8) for 2 or 3 weeks, and embedded in paraffin. Serial paraffin sections of 5 μm were stained with hematoxylin, eosin, and Safranin O. For immunohistochemistry, sections were labeled with antibodies against collagen type X (BIOCYC ref. [1]-CO097-05-RUO, 1:100 dilution), collagen type I (Novotec, 20151, dilution 1:1,000), pERK (Cell Signaling, 4370S, dilution 1:1,000), and PCNA (Abcam, GR3195972-6, 1:500 dilution) using the Dako Envision Kit. Images were captured with an Olympus PD70-IX2-UCB microscope and CellSens software (Olympus Life Science Solutions). Cells were counted using ImageJ software (NIH, Laboratory for Optical Computational Instrumentation).

The test system of data set [4] is Fgfr3^N534K/+ mouse model of HCH. Kind of data set: Fgfr3N534K/+ mice: long bone length. In kind it is in vivo. The following applies: 2.4 mg/kg dose, data not shown.
[5] abbreviates: 1.8 mg/kg daily s.c. for 21 days, 3 to 24 days of age.
Where [6] appears, read: Fgfr3N534K/+ mice + TYRA-300, individual animal values, in mm (unit assumed).
[7] abbreviates: 1.8 mg/kg daily for 21 days, microCT.

Several values for one entry are separate records, joined by “and”; a condition that tells them apart may be missing. Equal values may be shown once.

In the case of `C[C@@H](Oc1ccc2[nH]nc(-c3ccc(N4CC5(C4)CN(S(C)(=O)=O)C5)nc3)c2c1)c1c(Cl)cncc1Cl` [TYRA-300], in data set [1] (setting [5]), the “increase in femur length vs vehicle” value was 3.70%, the “increase in humerus length vs vehicle” value is 3.22%, the “increase in tibia length vs vehicle” value is reported as 3.75% and the “increase in ulna length vs vehicle” value was determined as 5.03%. In data set [1] (setting [6]), the “source data of Figure 4A (sheet "4A"): long bone length, bone not given” value is 12.31 and 12.55 and 12.375 and 11.91 and 12.485 and 12.9 and 12.58 and 12.185 and 11.555; the “source data of Figure 4B (sheet "4B"): long bone length, bone not given” value was 10.06 and 10.16 and 10.36 and 9.8 and 10.2 and 10.18 and 10.1 and 10.15 and 9.47; the “source data of Figure 4C (sheet "4C"): long bone length, bone not given” value was 10.705 and 10.605 and 11.015 and 10.35 and 10.8 and 10.795 and 10.61 and 11.13 and 10.195; the “source data of Figure 4D (sheet "4D"): long bone length, bone not given” value was 8.28 and 8.42 and 8.455 and 8.1 and 8.32 and 8.43 and 8.22 and 8.35 and 8.08. The “average normalization of long bone length toward wild-type” value in data set [1] (HCH model, 1.8 mg/kg) came out at 25%. Also, the “overall architecture of the growth plate (H&E and collagen type X)” value in the data set on pERK1/2 is “did not demonstrate significant changes”. Besides, the “pERK+ cells per ROI vs vehicle” value in the data set on pERK1/2 (distal femur growth plate) was “significant decrease”. For the same compound, in data set [2] (1.8 mg/kg daily for 21 days, data not shown), the “change in transverse diameter of the foramen magnum” value is “not a statistically significant change”. Besides, in data set [2] (setting [7]), the “increase in area of the foramen magnum vs vehicle” value turned out to be 7.51% and the “increase in sagittal diameter of the foramen magnum vs vehicle” value was determined as 6.35%. The “grade of synchondroses after treatment” value in data set [2] (1.8 mg/kg daily for 21 days, most mice, vehicle grade V) is reported as “IV”. Also, the “source data of Figure 5C (sheet "5C"): grade of synchondroses” value in data set [2] (Fgfr3N534K/+ mice + TYRA-300, individual animal values) is 5 and 4. In data set [3], the “height of the vertebral bodies vs vehicle” value is listed as “increased the height of the vertebral bodies”; the “increase in L4-L6 lumbar vertebrae segment length vs vehicle” value stood at 23.49%; the “shape of the intervertebral disc” value was “decreasing the height and increasing the lateral width of the nucleus pulposus”. In addition, the “phenotypic observations in preliminary dose exploration” value in data set [4] is “phenotypic signs consistent with the Fgfr3^–/– model were observed”.

Values taken from article PMC12128972, “TYRA-300, an FGFR3-selective inhibitor, promotes bone growth in two FGFR3-driven models of chondrodysplasia” (JCI Insight, 2025).
